# How the values were obtained:
# BHc tumors = experiment: Xenograft of archived BHc tumor in NCR nude mice maintained on doxycycline; assay type: in vivo, mouse; settings: 5 mice bearing BHc tumors, Tamoxifen IP for 8 consecutive days
# Procedure: (§1) Tamoxifen treatment: To activate CreER^T2 and induce Cre mediated recombination (i.e., excision) between loxP sites, animals were treated with 0.1 ml tamoxifen (10 mg/ml in corn oil) through intraperitoneal (IP) injection for […].
# (§2) About 0.1 million DC tumor cells were injected subcutaneously into 10 NCR nude mice on the right flank. These mice were maintained off doxycycline. Similarly 10 NCR nude mice were inoculated with archived BHc tumor and maintained on doxycycline. These mice were divided into 4 groups.
# The second group contained of 5 mice bearing BHc tumors. They were treated with Tamoxifen for 8 consecutive days.
# DC tumors = experiment: Xenograft of DC tumor cells (pL-Her2^YVMA complemented) in NCR nude mice maintained off doxycycline; assay type: in vivo, mouse; settings: 5 mice bearing DC tumors, Tamoxifen IP for 8 consecutive days, observed up to a month, untreated group had tumors within 10 days
# Procedure: Minced DC tumor was thawed at 37° C. and cells were dissociated by passing through cell strainers (100 μm filters, BD Falcon Cat. No. 352360). The cells were collected and centrifuged at 1000 rpm for 5 minutes, washed twice with PBS and counted using hemocytometer and resuspended in one part PBS (Gibco Cat. No. 24020-117) to one part Matrigel (BD Cat. No. 3542334) for injections.
# as §1, §2
# The fourth group contained of 5 mice bearing DC tumors. They were treated with Tamoxifen for 8 consecutive days.
smiles,measurement,setting,value
"CC/C(=C(\c1ccccc1)c1ccc(OCCN(C)C)cc1)c1ccccc1 [Tamoxifen, tamoxifen]",tumor growth compared with untreated group,BHc tumors,grew slower than group 1
same,time until tumors were observed,"BHc tumors; all 5 mice, untreated group within 10 days",≤ 12 days
same,tumor formation,DC tumors,Tumors were never observed
